In US12416052B2, “Capturing, concentrating, and detecting microbes in a sample using magnetic ionic liquids and recombinase polymerase amplification” (priority 2019, dated 2025):
Like-named read-outs stand apart in the source and are kept apart here.

Columns and labels:
[1] = system: Salmonella enterica subsp. enterica ser. Typhimurium ATCC 14028; format: cell-based; set-up: key to Relative Affinity for MIL: +++++: higher losses during wash step are due to lower cellular affinity for the MIL; ++++: higher losses during wash step are due to lower cellular affinity for the MIL; +++: higher losses during wash step are due to lower cellular affinity for the MIL; ++: higher losses during wash step are due to lower cellular affinity for the MIL; +: higher losses during wash step are due to lower cellular affinity for the MIL
Experimental: (§1) A universal schematic for MIL-based cell extraction is depicted in FIG. 7B. A 1 mL volume of diluted cell suspension was added to a flat-bottomed 4-mL screw cap glass vial. Fifteen microliters of either the Ni(II) or Dy(III) MIL was added and dispersed into microdroplets by vortex agitation for 30 s. The aqueous phase was decanted following dispersive extraction, and the MIL was subjected to a brief wash step using 1 mL of nuclease-free water (Integrated DNA Technologies, Coralville, IA, USA) to ensure adequate removal of loosely or incidentally bound cells. After washing, release of viable cells from the MIL extraction phase was carried out using a “back-extraction” step accomplished through addition of 1 mL of an ionically-rich nutritive medium comprised of 20 g L^−1 tryptone and 10 g L^−1 NaCl, followed by a 120 s vortex step. After back-extraction, aliquots of the cell-enriched back-extraction medium were enumerated using the track dilution method using 100×100 mm square, gridded TSA, BSA, CA or VRBGA plates.
(§2) Following back-extraction, aliquots of the cell-enriched back-extraction medium were serially diluted in 0.1% peptone water and a 10 μL aliquot of each dilution was applied to a separate lane on square plates containing an appropriate agar medium. The plates were then tilted at an approximately 80° angle for 15 min to allow the droplets to travel toward the opposite end of the plate. The plates were incubated for 24 h at 37° C. (TSA, VRBGA), for 48 h at 37° C. (BSA) or for 24 h at 37° C. (CA). Colonies were counted and colony forming units (CFU) were determined. The enrichment factor (EF) for MIL-based extraction was calculated using Equation 1, where CMIL represents the concentration of bacteria in suspension following extraction using the MIL and CS is the initial concentration of bacteria in the sample.
Because culture-based methods depend on sample preparation steps that preserve bacterial viability, potential deleterious cytotoxic effects imparted by MIL extractants must be considered. To begin our further study of MIL-bacterial interactions, we selected S. typhimurium ATCC 14028 as a model gram-negative pathogen and the Ni(II) MIL as extractant.

[2] = system: S. bongori; experiment: MIL-based whole-cell extraction; set-up: species or system Salmonella bongori; settings: 1×10^6 CFU mL^−1 in TSB, 15 μL MIL
Experimental: (§3) A universal schematic for MIL-based cell extraction is depicted in FIG. 7B. A 1 mL volume of diluted cell suspension was added to a flat-bottomed 4-mL screw cap glass vial. Fifteen microliters of either the Ni(II) or Dy(III) MIL was added and dispersed into microdroplets by vortex agitation for 30 s. The aqueous phase was decanted following dispersive extraction, and the MIL was subjected to a brief wash step using 1 mL of nuclease-free water (Integrated DNA Technologies, Coralville, IA, USA) to ensure adequate removal of loosely or incidentally bound cells. […]
as §2, with “The plates were then tilted at an approximately 80° angle for 15 min to allow the droplets to travel toward the opposite end of the plate. The plates were incubated for 24 h at 37° C. (TSA, VRBGA), for 48 h at 37° C. (BSA) or for 24 h at 37° C. (CA).” left out
In order to explore the broader utility of our approach, evaluation of additional cell types is needed. […] We later determined that VRBGA was a suitable common medium for this purpose and used this in our statistical analysis. […]

[3] = system: S. enterica subsp. houtenae; experiment: MIL-based whole-cell extraction; set-up: species or system Salmonella enterica; settings: 1×10^6 CFU mL^−1 in TSB, 15 μL MIL
Experimental: as §1, §2
(§4) In order to explore the broader utility of our approach, evaluation of additional cell types is needed. We began this extended evaluation of the Ni(II) MIL with seven representative DNA subgroups of Salmonella and eight strains of E. coli O157:H7. Briefly, a 1 mL aliquot of TSB was inoculated with 1×10^6 CFU mL^−1 of bacteria, and spiked with 15 μL of the Ni(II) MIL. MIL-based extraction was performed and 10 μL aliquots of the back-extraction solution were enumerated using TSA and BSA plates (Salmonella) or TSA plates (E. coli O157:H7). […] We later determined that VRBGA was a suitable common medium for this purpose and used this in our statistical analysis. Average CFU counts were compared to standards that were not exposed to the Ni(II) MIL. Enrichment factors were calculated for Salmonella on both non-selective (TSA) and selective agars (BSA) and for E. coli O157:H7 on non-selective agar (TSA). […] Note: As BSA is a Salmonella-specific agar E. coli O157:H7 was not plated to BSA in this example.

[4] = system: S. enterica subsp. indica; experiment: MIL-based whole-cell extraction; set-up: species or system Salmonella enterica; settings: 1×10^6 CFU mL^−1 in TSB, 15 μL MIL
Experimental: as §1, §2, §4

[5] = system: S. enterica subsp. salamae; experiment: MIL-based whole-cell extraction; set-up: species or system Salmonella enterica; settings: 1×10^6 CFU mL^−1 in TSB, 15 μL MIL
Experimental: as §1, §2, §4

[6] = system: P. carotovorum pv. carotovorum; experiment: MIL-based whole-cell extraction; set-up: species or system Pectobacterium carotovorum; settings: EF determined using Columbia Agar
Experimental: as §3
as §2, with “The plates were then tilted at an approximately 80° angle for 15 min to allow the droplets to travel toward the opposite end of the plate. The plates were incubated for 24 h at 37° C. (TSA, VRBGA), for 48 h at 37° C. (BSA) or for 24 h at 37° C. (CA).” left out

[7] = system: Salmonella serovars; format: cell-based
Experimental: The following statistical analysis was performed in SAS 9.4. Four master suspensions of bacteria were prepared for four Salmonella enterica serovars: subsp. typhimurium, subsp. arizonae, subsp. diarizonae and subsp. houtenae. Two master suspensions were made for the remaining three Salmonella serovars or species: S. enterica subsp. indica, subsp. salamae and S. bongori. For E. coli O157:H7, two master suspensions of bacteria were prepared for each of the eight strains studied. For all bacteria tested, two replicate extractions from the same master suspension were performed, using the 10-3 dilution. Following MIL-based capture, back-extraction solutions were plated to non-selective agar (TSA) and selective agar (BSA) for Salmonella and SMAC for E. coli. To identify whether significant differences existed for the capture of Salmonella and E. coli O157:H7, we applied a linear mixed model for the response variable (enrichment factor) with log transformation in order to reduce skewness. […]
In order to explore the broader utility of our approach, evaluation of additional cell types is needed. […] We later determined that VRBGA was a suitable common medium for this purpose and used this in our statistical analysis. […] Enrichment factors were calculated for Salmonella on both non-selective (TSA) and selective agars (BSA) and for E. coli O157:H7 on non-selective agar (TSA). […]

[8] = Density of MIL; format: physicochemical
[9] = Table 3, 1×10^5 CFU mL^−1 in TSB, 15 μL MIL
[10] = Table 4, 1×10^6 CFU mL^−1 in TSB, 15 μL MIL
[11] = average over exposure times 0-15 min (n=4)
[12] = exposure time 0 min, 1×10^5 CFU mL^−1 in TSB, 15 μL MIL

CCCCCCCCCCCCCC[P+](CCCCCC)(CCCCCC)CCCCCC.O=C([CH-]C(=O)C(F)(F)F)C(F)(F)F.O=C([CH-]C(=O)C(F)(F)F)C(F)(F)F.O=C([CH-]C(=O)C(F)(F)F)C(F)(F)F.[Ni+2] [Ni(II) MIL, [P66614^+][Ni(hfacac)3^−]]
Relative Affinity for MIL [1]: ++++
enrichment factors ([1]; Example 2, 2×T, 1×NaCl back-extraction medium): approximately 12
Enrichment Factor (BSA) [1, 9]: 14
Enrichment Factor (TSA) [1, 9]: 10
Enrichment Factor (BSA) [1, 10]: 6
Enrichment Factor (TSA) [1, 10]: 8
average EF value (BSA) [1, 11]: 8.2±1.0
average EF value (TSA) [1, 11]: 7.2±0.6
Percent-Loss ([1]; cells lost to wash solution): 53 ± 3%
Enrichment Factor (BSA) [1, 12]: 7
Enrichment Factor (TSA) [1, 12]: 8
Enrichment Factor (BSA) ([1]; exposure time 5 min): 8
Enrichment Factor (TSA) ([1]; exposure time 5 min): 7
Enrichment Factor (BSA) ([1]; exposure time 10 min): 8
Enrichment Factor (TSA) ([1]; exposure time 10 min): 6
Enrichment Factor (BSA) ([1]; exposure time 15 min): 9
Enrichment Factor (TSA) ([1]; exposure time 15 min): 8
Enrichment Factor (BSA) [2]: 4
Enrichment Factor (TSA) [2]: 4
Enrichment Factor (BSA) [3]: 8
Enrichment Factor (TSA) [3]: 8
Enrichment Factor (BSA) [4]: 4
Enrichment Factor (TSA) [4]: 3
Enrichment Factor (BSA) [5]: 9
Enrichment Factor (TSA) [5]: 12
Enrichment Factor [6]: 24
MIL-conferred injury: recovery on TSA or BSA ([7]; no statistically significant differences (p-value=0.7248)): no detectable injury
recovery on VRBGA compared with TSA ([7]; p-value=0.0004): significantly lower
density [8]: ~1.3 g/mL
